The values that follow come from the OligoGym collection.

One data set concerns the target ANGPTL2. As to conditions: ASO.
The target in another data set is KRAS. As to conditions: ASO.

Several values for one entry are separate records, joined by “and”; a condition that tells them apart may be missing. Equal entries are not always repeated. After the bases stand the sugars from the 5' end (letter, count) and the backbone: PS all phosphorothioate, else s phosphorothioate and o phosphodiester by linkage. Methylation of C is not given here. e = 2'-O-(2-methoxyethyl) (MOE); l = locked nucleic acid (LNA); k = constrained ethyl (cEt); d = 2'-deoxy (DNA)

As for “GTGCTCTGTGAAGATTA (sugars l2 d11 l4, PS)”, the target mRNA inhibition in the data set with ANGPTL2 (5 µM) amounted to 66.6%; in the data set with ANGPTL2 (25 µM), 81.3%.

For “TTACATGCCGCCAGAGGAA (sugars l1 d16 l2, PS)”, the target mRNA inhibition was found to be 45.6% in the data set with ANGPTL2 (5 µM) and 52.3% with ANGPTL2 (25 µM).

Consider “CCATTTTGAGATTCCCC (sugars l1 d14 l2, PS)”, for which the results for the target mRNA inhibition with ANGPTL2 (5 µM) and in the data set with ANGPTL2 (25 µM) were 26.4% and 11.8%, respectively. As for “TTATAAAGACAAGAGCCT (sugars l3 d12 l3, PS)”, the target mRNA inhibition with ANGPTL2 (5 µM) was found to be 34.5%; in the data set with ANGPTL2 (25 µM), 47.3%. In the data set with KRAS (A431, 2 µM), “TCCATTTATGTGACTA (sugars kkkdddddddddkeke, PS)” had a target mRNA inhibition of 8%. For the sequence AAATCTGAATTAGTCT (sugars k3 d10 k3, PS), the target mRNA inhibition in the data set with KRAS (A431, 2 µM) was 25%.

Regarding “GAGTCTTTATAGTAAT (sugars kddddddddddkekek, PS)”, in the data set with KRAS (A431, 2 µM), the target mRNA inhibition is 11%.

In the case of “TGCTGTGAAACTCTCT (sugars kkdddddddddkdkdk, PS)”, in the data set with KRAS (A431, 2 µM), the target mRNA inhibition worked out at 26%.

Consider “TGATGTGGTGAGACAGTA (sugars l2 d14 l2, PS)”, for which the target mRNA inhibition with ANGPTL2 (5 µM) is 53.6%; with ANGPTL2 (25 µM) it was 70.5%. In the case of GCTTGCGGATGATCTC (sugars l2 d12 l2, PS), the target mRNA inhibition with ANGPTL2 (5 µM) came to 38%; with ANGPTL2 (25 µM), 70.9%. GTCCAGTGATACTTTC (sugars k3 d10 k3, PS): the target mRNA inhibition with KRAS (A431, 2 µM) worked out at 44%.

CAAATGCTAATAATTT (sugars k3 d10 k3, PS) returned a target mRNA inhibition with KRAS (A431, 2 µM) of 0%. The sequence GCAGTGTGACTCAGTT (sugars k3 d10 k3, PS) gave a target mRNA inhibition with KRAS (A431, 2 µM) of 48%. “ACCAGTGTTAAGAGAA (sugars kkdddddddddkekek, PS)”: the target mRNA inhibition in the data set with KRAS (A431, 2 µM) came to 49%. CTTATGCAGAGAAAAC (sugars k3 d10 k3, PS): the target mRNA inhibition with KRAS (A431, 2 µM) is 8%. The sequence GTGTAACATAGGTTAA (sugars k3 d10 k3, PS) returned a target mRNA inhibition with KRAS (A431, 2 µM) of 30%. Turning to “GTGTTTATGCAATGTT (sugars kkdddddddddkekek, PS)”, the target mRNA inhibition was 22% in the data set with KRAS (A431, 0.185 µM); 54% with KRAS (A431, 0.556 µM); 77% in the data set with KRAS (A431, 1.667 µM); 65% with KRAS (A431, 2 µM); 83% with KRAS (A431, 5 µM). In the data set with KRAS (A431, 2 µM), ATCAACTGCATGCACC (sugars k3 d10 k3, PS) returned a target mRNA inhibition of 42%. “CCAGTGTTAAGAGAAC (sugars kkddddddddkekekk, PS)” returned a target mRNA inhibition in the data set with KRAS (A431, 2 µM) of 53%. Same read-out and setting: as for “ATGCTGTGAAACTCTC (sugars kdddddddddkekeke, PS)”, the figure is 24%; as for “CCAGTGTTAAGAGAAC (sugars kkkddddddddkekek, PS)”, 37%; as for “AGGAGTCTTTATAGTA (sugars kkddddddddddkeke, PS)”, 40%.

TAGTTTCACATAGCAA (sugars k3 d10 k3, PS): in the data set with KRAS (A431, 2 µM), the target mRNA inhibition came to 51%. As to GACTAATAGCAGTGGA (sugars k3 d10 k3, PS), in the data set with KRAS (A431, 2 µM), the target mRNA inhibition was 52% and 62%. The sequence ATTTCTGATGTGACTC (sugars k3 d10 k3, PS) displayed a target mRNA inhibition with KRAS (A431, 2 µM) of 49%.

The sequence “ATTGTGCTGAGCTTGA (sugars kddddddddddkekek, PS)” came in with a target mRNA inhibition with KRAS (A431, 2 µM) of 34%. On the same count and under the same terms, to “ACCAGTGTTAAGAGAA (sugars kddddddddddkekek, PS)” belongs 44%.

Turning to CATGTAAATATAGCCC (sugars k3 d10 k3, PS), in the data set with KRAS (A431, 2 µM), the target mRNA inhibition was determined as 5%.

For the sequence AATCTTATGGTTAGGG (sugars k3 d10 k3, PS), the target mRNA inhibition was 2% with KRAS (A431, 0.185 µM); 2% with KRAS (A431, 0.556 µM); 35% with KRAS (A431, 1.667 µM); 45% with KRAS (A431, 2 µM); 52% with KRAS (A431, 5 µM). Turning to “TCCAGTGATACTTTCA (sugars kkddddddddkekekk, PS)”, the target mRNA inhibition in the data set with KRAS (A431, 2 µM) stood at 24%.

Take “AGGAGTCTTTATAGTA (sugars kddddddddddkekek, PS)”: the target mRNA inhibition with KRAS (A431, 2 µM) turned out to be 31%. Take “CCAGTGATACTTTCAC (sugars kddddddddddkekek, PS)”: the target mRNA inhibition with KRAS (A431, 2 µM) is 0%. Regarding “GATTGTGCTGAGCTTG (sugars kkddddddddddkeke, PS)”, the target mRNA inhibition with KRAS (A431, 2 µM) is 19%. For the sequence TTGTTGAGCTATCCAA (sugars k3 d10 k3, PS), in the data set with KRAS (A431, 2 µM), the target mRNA inhibition is 3%. The sequence “GGAGTCTTTATAGTAA (sugars kkkddddddddkekek, PS)” registered a target mRNA inhibition with KRAS (A431, 2 µM) of 0%.

Regarding AATCTTTTAATGTCAC (sugars k3 d10 k3, PS), the target mRNA inhibition in the data set with KRAS (A431, 2 µM) came out at 44%. “CTTGATTTGTCAGCAG (sugars kkdddddddddkekek, PS)”: the target mRNA inhibition with KRAS (A431, 2 µM) was 49%. On to GTCTATTCATACCAGG (sugars k3 d10 k3, PS), for which the target mRNA inhibition with KRAS (A431, 2 µM) came out at 60%. AGTATTAACACAGAAG (sugars k3 d10 k3, PS) yielded a target mRNA inhibition with KRAS (A431, 2 µM) of 27%. Take CCAGTATTAACACAGA (sugars k3 d10 k3, PS): the target mRNA inhibition with KRAS (A431, 2 µM) amounted to 37%. The sequence CATTGCTAGTTCAAAA (sugars k3 d10 k3, PS) returned a target mRNA inhibition with KRAS (A431, 2 µM) of 9%.

In the case of ACCAGTGTTAAGAGAA (sugars k3 d10 k3, PS), the target mRNA inhibition with KRAS (A431, 0.185 µM) is 5% and 3%; with KRAS (A431, 0.556 µM) it was 39% and 19%; with KRAS (A431, 1.667 µM), 59% and 43%; with KRAS (A431, 2 µM) it was 60%; in the data set with KRAS (A431, 5 µM) it was 72% and 60%. In the data set with KRAS (A431, 2 µM), “ACCAGTGTTAAGAGAA (sugars kkddddddddddkeke, PS)” registered a target mRNA inhibition of 42%.
